US5281594A, “Substituted 1-(alkoxyphenyl)piperazines with ons and antihypertensive activity” (The Upjohn Company, priority 1992, dated 1994)
Read-outs that look alike come from different tables or passages of the source.

Legend:
[1] = tested on: dopamine receptor within the central nervous system; assay: Block of apomorphine-induced cage climbing; format: in vivo, CF-1 mice; conditions: i.p., 25 minutes before apomorphine HCl 2.5 mg/kg i.p.; i.a. = inactive at top dose of 50 mg/kg
Description: Administration to mice stimulates dopaminergic receptors which results in enhanced locomotor activity, including climbing up the sides of wire cages. […] As a specific measure of their antagonistic effect, both the prior art compounds and the compounds of the invention are tested in their ability to block agonist-induced locomotor activity. […] During this time, mice that climb the walls more than half-way to the top (6") are removed from the cage. […] Co., New York, N.Y., p.

D2 receptor [2] = molecular target: T1, D2 receptor (Rattus norvegicus, UniProt P61169); assay: biochemical; format: binding; conditions: for binding to dopamine receptors (in words): at concentrations as high as 1,000 nM (m-tolyl) and 10,000 nM (p-methoxyphenyl), respectively
T1 sequence (P61169 whole entry): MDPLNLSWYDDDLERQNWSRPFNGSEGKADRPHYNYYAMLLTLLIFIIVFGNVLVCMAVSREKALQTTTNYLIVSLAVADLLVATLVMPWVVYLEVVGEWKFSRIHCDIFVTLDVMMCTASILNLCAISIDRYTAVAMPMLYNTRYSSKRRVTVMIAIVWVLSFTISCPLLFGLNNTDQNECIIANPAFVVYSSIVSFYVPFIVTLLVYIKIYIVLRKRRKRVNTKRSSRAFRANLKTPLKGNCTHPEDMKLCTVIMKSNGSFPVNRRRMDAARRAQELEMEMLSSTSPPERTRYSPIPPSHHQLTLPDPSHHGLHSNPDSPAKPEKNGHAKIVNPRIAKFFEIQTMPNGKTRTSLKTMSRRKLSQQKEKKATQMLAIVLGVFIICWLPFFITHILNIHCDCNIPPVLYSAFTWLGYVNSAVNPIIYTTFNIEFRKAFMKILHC
Description: The compounds of the invention are tested in a series of assays known by those skilled in the art as predictive for activity as dopamine partial agonists. […] Drugs. […] Except as otherwise stated, all other chemicals are widely available from commercial sources.
1. Dopamine Receptor Binding
Since a dopamine partial agonist must bind to the dopamine receptor, binding studies are used to determine the affinity of a compound for the receptor. […] The dopamine receptor affinity of the prior art compounds is compared to two compounds of the present invention following the procedure described in R. H. Roth. Comm. […] Compounds are tested at least four concentrations in triplicate. Non-specific binding is determined using 1 uM thioridazine.

D2 receptor [3] = molecular target: T1, D2 receptor; conditions: rat striata; Kohler; cited from earlier work
D2 receptor [4] = conditions: PET scanning in humans; Farde; cited from earlier work
catalepsy [5] = conditions: rat, in vivo
[6] = tested on: amphetamine-induced stereotyped behavior; assay: Antagonism of amphetamine-induced stereotyped behavior; format: in vivo, Sprague-Dawley rats; conditions: for minimal effective dose: Rattus norvegicus, ip, i.p. 30 minutes before d-amphetamine (10 mg/kg s.c.), read-out: Antagonism amphetamine stereotypy: threshold dose for effect
Description: Amphetamine releases excessive dopamine and induces a state in animals that serves as a model of positive-symptom schizophrenia. Amphetamine stimulates excessive locomotor activity in the rat, including uncontrolled stereotyped movements, characterized by licking and chewing. This model is indicative of the human response as amphetamine abuse is characterized by schizophrenic-like behavior in humans. Thus compounds may be tested in their ability to antagonize amphetamine.

[7] = tested on: dopaminergic neurons in the substantia nigra (SNPC); assay: Dopamine nerve impulse generation: reversal of amphetamine-induced depression of firing (antagonist); format: in vivo, Sprague-Dawley rats; conditions: for ED50: Rattus norvegicus, Neuron, iv, read-out: Antagonist ED50: dose to reverse amphetamine by 50%
Description: (§1) 3. Dopamine Nerve Impulse Generation
Dopamine partial agonists act as dopamine antagonists when dopaminergic activity is excessive. Excessive dopaminergic activity can be induced by amphetamine, which causes dopamine to be released at nerve terminals in dopaminergic postsynaptic areas such as the caudate nucleus. This released dopamine activates negative feedback systems connecting postsynaptic dopaminergic areas to dopamine cells (e.g., the caudate nucleus feeds back onto substantia nigra neurons). Through this negative feedback system, amphetamine inhibits nerve impulses in dopamine neurons. Because dopamine antagonists block the access of dopamine to its receptors, these agents block the activation of the negative feedback pathways. Thus, dopamine antagonists and dopamine partial agonists block or reverse amphetamine's depression in dopamine nerve impulse activity. Because dopamine antagonists block not only the dopamine released by amphetamine but also the dopamine released for maintenance of a normal physiological state, dopamine antagonists not only completely reverse the effects of amphetamine but may actually cause an increase in dopamine neuron impulse activity (i.e. reverse amphetamine's inhibition by more than 100%). […] Indeed, partial agonists with higher intrinsic activities only partially reverse the effects of amphetamine.
(§2) The activity of two compounds of the invention are compared with other known drugs in their effect on nerve impulse generation. Sprague-Dawley rats weighing between 250-350 g are anesthetized with chloral hydrate (400 mg/kg i.p.). Supplemental doses (50-100 mg/kg) are administered as needed. The fermoral artery and vein are cannulated to measure blood pressure and to permit i.v. administration of drug. Body temperature is maintained at 37° C. using a deltaphase isothermal pad. The animal's head is held in a stereotaxic device and a small burr hole made in the cranium. Extracellular action potentials are recorded with a glass microelectrode (tip size<1μm) filled with pontamine sky blue dye in 2M sodium chloride.
(§3) Dopaminergic neurons are identified by their long duration action potential (>2.5 ms), shape and firing pattern ([…]) according to B. S. Bunney and G. K. Aghajanian "Antipsychotic Drugs and Central Dopaminergic Neurons: A Model for Predicting Therapeutic Efficacy and Incidence of Extrapyramidal Side Effects, In: Predictability in Psychopharmacology: Preclinical and Clinical Correlates, eds.", Raven Press, N.Y., pp. 225-245 (1975). […] Watson "The Rat Brain in Stereotaxic Coordinates", Academic Press, Sydney (1982).
(§4) At the termination of each recording session, the location of the cell in the substantia nigra is identified by passing 10 μA cathodic current through the recording electrode for 10-20 minutes. The brain is then removed, fixed in 10% formalin, sectioned and stained, and the pontamine sky blue deposit verified in each animal.
(§5) All drug solutions are made in distilled water. Each drug injection contained no more than 0.15 ml of a given concentration, followed by a 0.2-0.4 ml of physiological saline to clean the catheter of any residual drug. Drug effects are measured as changes in firing rates as indicated by an integrated output throughout the experiment.

[8] = tested on: dopaminergic neurons in the substantia nigra (SNPC); assay: Dopamine nerve impulse generation: depression of firing of substantia nigra dopamine neurons (agonist); format: in vivo, Sprague-Dawley rats; conditions: for Emax / ED50: Rattus norvegicus, Neuron, iv; for Emax: read-out: Agonist Max.: maximal depression of firing; for maximal depression on DA cell firing (% of control): 1 mg/kg i.v.; for ED50: read-out: Agonist ED50: dose to depress firing by 50%
Description: as §1
Dopaminergic agonists, such as apomorphine, depress nerve impulses generated by dopaminergic neurons. Indeed, all full dopamine agonists can completely suppress impulse generation so that the dopamine cells stop firing completely. As the name implies, partial agonists depress impulse generation only partly.
as §2, §3, §4, §5

catalepsy [9] = assay: Catalepsy
[10] = 3H-raclopride, whole rat brain, non-specific binding with 1 uM thioridazine, i.a. = inactive at specified concentration, read-out: Ki (dose for 50% occupation of the receptors)

Question: What does the source list for Cc1cccc(N2CCN(CCCN3CCN(c4cccc(Cl)c4)C3=O)CC2)c1 [1-(m-chlorophenyl)-3-[3-[4-(m-tolyl)-1-piperazinyl]propyl]-2-imidazolidinone]?
Answer: ED50: dose for elimination of climbing behavior in 2 of 4 animals [1]: i.a.; Ki (D2 receptor [2]; [10]): > 1000 nM; binding to dopamine receptors (in words) (D2 receptor [2]): do not bind at all

Question: For CCN1CCC[C@H]1CNC(=O)c1c(O)c(Cl)cc(Cl)c1OC [raclopride], which B max (D2 receptor [3]) is on record?
Answer: 23.5 pmoles/g tissue

Question: And the “binding to the D2 receptor (in words)” value (D2 receptor [4])?
Answer: binds to the D2 receptor

Question: What about the Bmax (D2 receptor [2]; 3H-raclopride, whole rat brain) of the same compound?
Answer: 1.6 pmoles/g tissue

Question: For O=C(CCCN1CCC(O)(c2ccc(Cl)cc2)CC1)c1ccc(F)cc1 [Haloperidol], which “Catalepsy: threshold dose for effect” value (catalepsy [5]) is on record?
Answer: 1.0 mg/kg

Question: And the minimal effective dose [6]?
Answer: 1 mg/kg

Question: What about the ED50 ([7]; i.a. = inactive) of the same compound?
Answer: 0.008 mg/kg

Question: And the “Antagonist Max.: maximal reversal of amphetamine” value (from here on “Antagonist Max.: maximal reversal”) ([7]; i.v.)?
Answer: 163%

Question: And the Emax [8]?
Answer: 0%

Question: What about the “Agonist ED50: dose to depress firing by 50%” value ([8]; i.v., i.a. = inactive) of the same compound?
Answer: i.a.

Question: Which “ED50: dose for elimination of climbing behavior in 2 of 4 animals” value (shortened to “ED50: dose for elimination”) [1] does the source give for COc1ccccc1N1CCN(CCCCN2CCN(c3ccccc3)C2=O)CC1 [Example 1, 1-[4-[4-(2-methoxyphenyl)-1-piperazinyl]butyl]-3-phenyl-2-imidazolidinone] here?
Answer: 12 mg/kg

Question: What about the minimal effective dose [6] of the same compound?
Answer: 0.3 mg/kg

Question: And the “antagonism of amphetamine stereotypy, potency relative to haloperidol (in words)” value ([6]; rat, in vivo)?
Answer: antagonizes amphetamine stereotypy with a potency greater than that of halperidol

Question: What about the Ki (D2 receptor [2]; [10]) of the same compound?
Answer: 2.6 nM

Question: And the ED50 ([7]; i.a. = inactive)?
Answer: 0.04 mg/kg

Question: And the “Antagonist Max.: maximal reversal” value ([7]; i.v.)?
Answer: 70%

Question: And the “antagonism of amphetamine-induced excessive dopaminergic activity (in words)” value ([7]; i.v.)?
Answer: only partially antagonized amphetamine

Question: And the “maximal depression on DA cell firing (% of control)” value [8]?
Answer: 32%

Question: What about the Emax ([8]; Table 3) of the same compound?
Answer: 36%

Question: What about the ED50 ([8]; i.a. = inactive) of the same compound?
Answer: 0.016 mg/kg

Question: And the “depression of SNPC cells (in words)” value ([8]; i.v.)?
Answer: behaved as dopamine partial agonists

Question: What about the “Catalepsy: threshold dose for effect” value (catalepsy [9]; defined as 200% increase in time a rat will spend leaning on a box without aid) of the same compound?
Answer: 10 mg/kg

Question: What about the “catalepsy relative to dose blocking amphetamine-induced stereotypy (in words)” value (catalepsy [9]; rat, in vivo) of the same compound?
Answer: produces catalepsy only at doses much higher that required to block amphetamine-induced stereotypy

Question: Which “ED50: dose for elimination” value [1] does the source give for CCN(CC)C(=O)N[C@H]1C[C@@H]2c3cccc4[nH]cc(c34)C[C@H]2N(C)C1 [TDHL, 1-1-diethyl-3-(6-methyl-8α-ergoline)-urea dihydrogenphosphate] here?
Answer: 35 mg/kg

Question: And the Ki (D2 receptor [2]; [10])?
Answer: 0.95 nM

Question: And the ED50 [7]?
Answer: 0.136 mg/kg

Question: And the “Antagonist Max.: maximal reversal” value ([7]; i.v.)?
Answer: 60%

Question: What about the ED50 [8] of the same compound?
Answer: 0.021 mg/kg

Question: And the Emax [8]?
Answer: 53%

Question: What does the source list for “7-hydroxy-1,2,3,4,4a,5,6,10-octahydrobenzo(f)quinoline [HW-165]”?
Answer: Agonist Max.: maximal depression of firing ([8]; i.v., Table 3): 85%; Agonist ED50: dose to depress firing by 50% ([8]; i.v., i.a. = inactive): 0.18 mg/kg

Question: With CCCN(CCC)C1Cc2cccc3cc(O)cc(c23)C1 (single isomer, unassigned; (-)) [(-)-z-(dipropylamino)-2,3-dihydro-1-H-phenalen-5-ol] as the compound, how does the Ki (D2 receptor [2]) read?
Answer: 0.47 nM

Question: With COc1ccc(N2CCN(CCCN3CCN(c4cccc(Cl)c4)C3=O)CC2)cc1 [1-(m-chlorophenyl)-3-[3-[4-(p-methoxy-phenyl)-1-piperazinyl]propyl]-2-imidazolidinone] as the compound, how does the “ED50: dose for elimination” value [1] read?
Answer: i.a.

Question: And the Ki (D2 receptor [2]; [10])?
Answer: > 10000 nM

Question: What about the “binding to dopamine receptors (in words)” value (D2 receptor [2]) of the same compound?
Answer: do not bind at all

Question: For CN1C[C@@H](NC(=O)C(C)(C)C)C[C@@H]2c3cccc4[nH]c(Cl)c(c34)C[C@H]21 [SDZ 208-912, N-[(8-α)-2-chloro-6-methyl-ergoline-8-yl]-2,2-dimethylpropanamide], which Ki (D2 receptor [2]) is on record?
Answer: 15.7 nM

Question: What about the ED50 [7] of the same compound?
Answer: 0.115 mg/kg

Question: What about the “Antagonist Max.: maximal reversal” value ([7]; i.v.) of the same compound?
Answer: 93%

Question: And the ED50 [8]?
Answer: 0.021 mg/kg

Question: What about the Emax [8] of the same compound?
Answer: 16%

Question: With Cc1[nH]c2cccc3c2c1C[C@@H]1[C@@H]3C[C@H](NC(=O)C(C)(C)C)CN1C [SDZ 208-911, N-[(8-α)-2,6-dimethyl-ergoline-8-yl]-2,2-dimethylpropanamide] as the compound, how does the ED50 [7] read?
Answer: 0.132 mg/kg

Question: And the “Antagonist Max.: maximal reversal” value ([7]; i.v.)?
Answer: 92%

Question: What about the ED50 [8] of the same compound?
Answer: 0.038 mg/kg

Question: And the Emax [8]?
Answer: 38%

Question: Which “ED50: dose for elimination” value [1] does the source give for Cl.O=C1N(CCCN2CCN(c3ccccc3)CC2)CCN1c1ccccc1 [1-phenyl-3-[3-(4-phenyl-1-piperazinyl)propyl]-2-imidazolidinone hydrochloride] here?
Answer: i.a.

Question: And the Ki (D2 receptor [2]; read-out: Ki (dose for 50% occupation of the receptors))?
Answer: 323 nM

Question: What does the source list for CCCN1CCCC(c2cccc(O)c2)C1 (single isomer, unassigned; (-)) [(-)-3-PPP, (-)-3-(3-hydroxyphenyl)-N-n-propylpiperidine]?
Answer: Emax ([8]; Table 3): 70%; ED50 ([8]; i.a. = inactive): 0.086 mg/kg

Question: With COc1ccccc1N1CCN(CCCCN2CCN(c3cccc(Cl)c3)C2=O)CC1 [Example 2, 1-(3-chlorophenyl)-3-[4-[4-(2-methoxyphenyl)-1-piperazinyl]butyl]-2-imidazolidinone] as the compound, how does the “ED50: dose for elimination” value [1] read?
Answer: 42 mg/kg

Question: And the Ki (D2 receptor [2]; [10])?
Answer: 3.7 nM

Question: And the ED50 ([7]; i.a. = inactive)?
Answer: 0.343 mg/kg

Question: What about the “Antagonist Max.: maximal reversal” value ([7]; i.v.) of the same compound?
Answer: 73%

Question: And the “maximal depression on DA cell firing (% of control)” value [8]?
Answer: 54%

Question: And the “further depression of SNPC cells on increasing the dose (in words)” value ([8]; 3 mg/kg vs 1 mg/kg i.v.)?
Answer: does not further increase the depression in SNPC cells

Question: What about the Emax ([8]; Table 3) of the same compound?
Answer: 54%

Question: And the ED50 ([8]; i.a. = inactive)?
Answer: 0.108 mg/kg

Question: And the “depression of SNPC cells (in words)” value ([8]; i.v.)?
Answer: behaved as dopamine partial agonists

Question: What does the source list for CN1CCc2cccc3c2[C@H]1Cc1ccc(O)c(O)c1-3 [Apomorphine]?
Answer: Antagonist Max.: maximal reversal of amphetamine ([7]; i.v.): 0%; Antagonist ED50: dose to reverse amphetamine by 50% ([7]; i.v., i.a. = inactive): i.a.; Emax ([8]; Table 3): 100%; ED50 ([8]; i.a. = inactive): 0.01 mg/kg
